Where a name gives a salt, the structure may show the parent alone.
biological target: T1, Kinase A and SpoOF (Bacillus subtilis, UniProt P16497); test: Autophosphorylation of Kinase A and transphosphorylation of SpoOF assay (HPK in vitro assay); type: biochemical; settings: inhibition of KinA autophosphorylation / SpoOF transphosphorylation, [32P]ATP, gel and phosphoimager
T1 sequence (P16497 1-606): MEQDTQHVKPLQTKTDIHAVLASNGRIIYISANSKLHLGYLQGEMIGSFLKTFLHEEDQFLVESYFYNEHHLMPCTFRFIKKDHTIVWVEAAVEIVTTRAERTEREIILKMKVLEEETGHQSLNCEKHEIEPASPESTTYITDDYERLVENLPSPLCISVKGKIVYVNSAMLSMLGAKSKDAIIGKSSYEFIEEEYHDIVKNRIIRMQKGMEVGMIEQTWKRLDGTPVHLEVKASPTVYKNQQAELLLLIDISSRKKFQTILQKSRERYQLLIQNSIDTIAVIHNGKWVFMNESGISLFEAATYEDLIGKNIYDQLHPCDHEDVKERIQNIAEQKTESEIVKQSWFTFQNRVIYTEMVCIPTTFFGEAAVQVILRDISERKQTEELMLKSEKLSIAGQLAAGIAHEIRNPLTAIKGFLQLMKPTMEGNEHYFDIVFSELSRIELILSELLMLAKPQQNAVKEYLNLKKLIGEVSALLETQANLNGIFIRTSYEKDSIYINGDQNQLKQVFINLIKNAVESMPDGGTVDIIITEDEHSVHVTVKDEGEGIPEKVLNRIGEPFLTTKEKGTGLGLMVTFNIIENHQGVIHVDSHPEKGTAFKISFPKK
Protocol: 1. Autophosphorylation of Kinase A and Transphosphorylation of SpoOF Assay
To study the effect of the compounds of the present invention on the signal transduction process in bacteria, the inhibiting effect of the compounds on the sporulation operon proteins Kinase A and SpoOF was examined. Specifically, the inhibition of autophosphorylation of Kinase A and the transphosphorylation of SpoOF was determined in the following assays. The SpoOF response regulator is the primary substrate for phosphorylation by the protein kinase, Kin A, involved in the sporulation process in bacteria. See D. Burbulys, K. A. Trach, J. A. Hoch, Cell, 64, 545-552 (1991).
The following stock reagents were either prepared and used promptly or stored at the indicated temperature:
8× Salts: 2M KCl (5 mL), 1M MgCl2 (800 mL), 1M CaCl2 (100 mL), 10 mg/mL phenylmethylsulfonyl fluoride (200 mL), 1M dithioreitol (50 mL), 0.25M Na2 EDTA (32 mL) and H2 O 3.82 mL (-20°C.)
5× Loading Dye: 0.5M TRIS-HCl-pH 6.8 (7.5 mL), 10% SDS (2 mL) 0.1% bromophenol blue (0.5 mL), 100% glycerol (3 mL) and 12.5M 2-mercaptoethanol (0.3 mL)
1-1.3 mg/mL KinA:15 mM TRIS-HCl, pH 8.0, 6 mM KCl; 4 mM 2-mercaptoethanol; 40% glycerol (-20 C.)
1 mg/mL Spo0F: 17.5 mM TRIS-HCl, pH 8.0; 0.7 mM KCl; 0.7 mM MgCl2; 0.7 mM CaCl2; 5 mM 2-mercaptoethanol; 30% Glycerol (-20°C.)
5% Stacking Gel: 40% 29:1 acrylamide:bis acrylamide (1.25 mL), 0.5M TRIS-HCl, pH 6.8 (2.5 mL), 10% SDS (0.1 mL), D-H2 O (6.15 mL) 10% ammonium persulfate (100 mL) and TEMED (25 mL)
SDS Running Buffer: TRIS-BASE (3.02 g), glycine (14.4 g) SDS (1 g), D-H2 O (to 1 L)
The reaction mixture was prepared from 8× Salts (87 μL), 1M TRIS, pH 8 (118 EL), 50% glycerol (63 μL), Spo0F (14.1 μL) and KinA (7.0 μL). Microcentrifuge tubes were charged with the reaction mixture (18.5 μL) and a 1.0 mM solution of the test compound in 5% DMSO (18.5 μL), and incubated for 15 min on ice. 100 mM ATP solution (3.0 μI, containing 625 μCi [^32 P]ATP) was added, and the mixture left for 10 minutes at room temperature. The reaction was quenched with 5× loading dye (10 μL per tube) and the samples were loaded on a prepared 5% Stacking Gel, or stored on dry ice until ready for use. The prepared wells were filled with SDS Running Buffer, samples were loaded into the wells, and 80 volts were applied to the gel until the dye front reached the bottom of the stacking gel. The voltage was then increased to 250 volts until electrophoresis was complete. Radioactive bands in the gel corresponding to phosphorylated KinA and SpoOF were imaged and quantitated with a phosphoimager.
If either enzyme was inhibited (as evidenced by the absence of labelled protein in the developed gel), an IC50 was calculated by running the assay with a range of inhibitor concentrations from 1 to 500 μM. After electrophoresis of the reaction mixtures, percent inhibition was determined by measuring the concentration of radioactive phosphorus with a phosphoimager and calculating the values using a software program (BioRad Molecular Analyst).

Q: For `NCCc1ccc(O[C@@H]2CC[C@H](c3ccccc3)c3ccccc32)cc1` (relative stereo) [Compound 6, 2-[4-(ClS-4-PHENYL-1,2,3,4-TETRAHYDRO-1-NAPHTHOXY)PHENYL]-ETHYLAMINE OXALATE], which IC50 is on record?
A: 68.9 µM

Q: `NCCc1ccc(OCCC(c2ccccc2)c2ccccc2)cc1` [Compound 2, 2-[4-(3,3-DIPHENYLPROPOXY)PHENYL]ETHYLAMINE] was tested. Which IC50 did it give?
A: 31.25 µM

Q: With `N=C(N)NCCc1ccc(OCCC(c2ccccc2)c2ccccc2)cc1` [Compound 3, 2-[4-(3,3-DIPHENYLPROPOXY)PHENYL]ETHYLGUANIDINE] as the molecule, how does the IC50 read?
A: 21.5 µM

Q: For `N=C(N)NCCc1ccc(OCCC2c3ccccc3-c3ccccc32)cc1` [Compound 4, {2-[4-[2-(9-FLUORENYL)ETHOXY]PHENYL]ETHYL}GUANIDINE], which IC50 is on record?
A: 19.8 µM

Q: With `N=C(N)NCc1cccc(OCCC(c2ccccc2)c2ccccc2)c1` [Compound 7, [3-(3,3-DIPHENYLPROPOXY)PHENYL]METHYLGUANIDINE BICARBONATE 0.5 HYDRATE] as the molecule, how does the IC50 read?
A: 60 µM

Q: For `NCc1cccc(OCCC(c2ccccc2)c2ccccc2)c1` [Compound 8, [3-(3,3-DIPHENYLPROPOXY)PHENYL]METHYLAMINE·HYDROCHLORIDE·0.6 HYDRATE], which IC50 is on record?
A: 42.9 µM

Q: With `NCCc1ccc(OCC=C(c2ccccc2)c2ccccc2)cc1` [Compound 9, 2-[4-(3,3-DIPHENYL-2-PROPENOXY)PHENYL]ETHYLAMINE HYDROCHLORIDE·0.5HYDRATE] as the molecule, how does the IC50 read?
A: 41 µM

Q: With `NCCc1ccc(OC(c2ccccc2)c2ccccc2)cc1` [Compound 10, 2-{4-(2-DIPHENYL-2-METHOXY)PHENYL}ETHYLAMINE·HYDROCHLORIDE·HYDRATE] as the molecule, how does the IC50 read?
A: 68 µM

Q: Which IC50 does the source give for `NCCCc1ccc(OCC=C(c2ccccc2)c2ccccc2)cc1` [Compound 11, 3-[4-(3,3-DIPHENYL-2-PROPENOXY)PHENYL]PROPYLAMINE·OXALATE] here?
A: 19.5 µM

Q: `O=CN1CCN(c2ccc(OCCC(c3ccccc3)c3ccccc3)cc2)CC1` [Compound 12, 1-FORMYL-4-[4-(3,3-DIPHENYLPROPOXY)PHENYL]PIPERAZINE·0.5 HYDRATE] was tested. Which IC50 did it give?
A: 165 µM

Q: For `O=C(CC(c1ccccc1)c1ccccc1)Nc1ccc(N2CCNCC2)cc1` [Compound 13, 4-[4-(3,3-DIPHENYLPROPANOYLAMINO) PHENYL]PIPERAZINE·0.5 HYDRATE], which IC50 is on record?
A: 379.4 µM

Q: `O=C(O)C(=O)O.c1ccc(C(CCOc2ccc(N3CCNCC3)cc2)c2ccccc2)cc1` [Compound 14, 4-[4-(3,3-DIPHENYLPROPOXY)PHENYL]PIPERAZINE OXALATE] was tested. Which IC50 did it give?
A: 130.4 µM

Q: For `C1=C(c2ccc(OCCC(c3ccccc3)c3ccccc3)cc2)CCNC1` [Compound 15, 4-[4-(3,3-DIPHENYLPROPYLOXY)PHENYL]-1,2,3,6-TETRAHYDROPYRIDINE·HYDROCHLORIDE 0.6 HYDRATE], which IC50 is on record?
A: 45.6 µM

Q: With `Brc1ccc(OCCC(c2ccccc2)c2ccccc2)cc1` [Compound 17, 4-(3,3-DIPHENYLPROPOXY)BROMOBENZENE] as the molecule, how does the IC50 read?
A: 643.5 µM

Q: With `NCCc1ccc(OCCC(c2ccccc2)c2cccnc2)cc1` (stereo not drawn) [Compound 18, 2-[4-(3-PHENYL-3-(3-PYRIDYL)PROPOXY)PHENYL]ETHYLAMINE·OXALATE·0.1 HYDRATE] as the molecule, how does the IC50 read?
A: > 100 µM

Q: `NCCc1ccc(NC/C=C(/c2ccccc2)c2cccnc2)cc1` [Compound 20, Z-2-[4-(3-PHENYL-3-(3-PYRIDYL)PROPENYLAMINO)PHENYL]-ETHYLAMINE·OXALATE·0.2DIETHYL ETHER·0.15 ETHYL ACETATE·0.5 HYDRATE] was tested. Which IC50 did it give?
A: > 500 µM

Q: For `NCCc1ccc(NC/C=C(\c2ccccc2)c2cccnc2)cc1` [Compound 21, E-2-[4-(3-PHENYL-3-(3-PYRIDYL)-2-PROPENYLAMINO)PHENYL]-ETHYLAMINE·OXALATE·0.33 ETHYL ACETATE·0.5 HYDRATE], which IC50 is on record?
A: > 500 µM

Q: How did the IC50 turn out when `N=C(N)NCCc1ccc(OCCN(Cc2ccccc2)Cc2ccccc2)cc1` [Compound 23, 2-[4-(2-[N,N'-DIBENZYLAMINO]-ETHOXY)PHENYL]ETHYLGUANIDINE] was run?
A: 60 µM

Q: How did the IC50 turn out when `c1ccc(C(OCCOc2ccc(N3CCNCC3)cc2)c2ccccc2)cc1` [Compound 24, 4-[4-{2-(DIPHENYLMETHOXY)ETHOXY}PHENYL]PIPERAZINE·CARBONATE 2.0 HYDRATE] was run?
A: 769 µM

Q: For `C1=C(c2ccc(OCCOC(c3ccccc3)c3ccccc3)cc2)CCNC1` [Compound 25, 4-{4-[2-(DIPHENYLMETHOXY) ETHOXY]PHENYL}-1, 2, 3, 6-TETRAHYDROPYRIDINE·MONOOXALATE 0.5 HYDRATE], which IC50 is on record?
A: 313 µM

test system: gram positive bacteria / Gram negative bacteria (Enterococcus faecalis, Staphylococcus aureus incl. methicillin resistant, Staphylococcus epidermidis …); test: MIC antimicrobial assay (NCCLS microdilution broth method); type: cell-based; settings: MIC value range over the selected gram positive and gram negative test organisms; 35° C., 16-20 hours
Protocol: 2. MIC Antimicrobial Assay
The in vitro antimicrobial activity of the compounds was determined by the microdilution broth method following the test method from the National Committee for Laboratory Standards (NCCLS). This method is described in the NCCLS Document M7-A2, Vol.10, No. 8 "Methods for Dilution Antimicrobial Susceptibility Test for Bacteria that Grow Aerobically-Second Edition."
In this method two-fold serial dilutions of drug in cation supplemented Mueller-Hinton broth are added to wells in microdilution trays. The test organisms are prepared by adjusting the turbidity of actively growing broth cultures so that the final concentration of test organism after it is added to the wells is approximately 5×10^4 CFUs/well).
Following inoculation of the microdilution trays, the trays are incubated at 35° C. for 16-20 hours and then read. […] The amount of growth in the wells containing the test compound is compared with the amount of growth in the growth-control wells (no test compound) used in each tray. The following test organisms were utilized in the assay:
Enterococcus faecalis ATCC 29212
Enterococcus faecalis oc 3041
Enterococcus faecalis oc 2993
Methicillin resistant Staphylococcus aureus oc 2089
Methicillin resistant Staphylococcus aureus oc 667
Staphylococcus aureus ATCC 29213
Staphylococcus aureus ATCC 6538
Staphylococcus epidermidis oc 2603
Escherichia coli oc 2530 ss […]

Q: Which “MIC(G+/G-)” value does the source give for `N=C(N)NCc1cccc(OCCC(c2ccccc2)c2ccccc2)c1` [Compound 7, [3-(3,3-DIPHENYLPROPOXY)PHENYL]METHYLGUANIDINE BICARBONATE 0.5 HYDRATE] here?
A: 2-32

Source: patent US5773469A, “Diaryl antimicrobial agents” (Ortho Pharmaceutical Corporation, priority 1996, dated 1998)
